Laboratory results published in patent US5990158A, “Carboxylic acid derivatives, method of manufacturing the same and therapeutic agents containing these compounds” (Kotobuki Seiyaku Co., Ltd., priority 1996, dated 1999).

Legend:
MMP-2 (gelatinase A) = biological target: T1, MMP-2 (gelatinase A) (Homo sapiens, UniProt P08253); test: MMP-2 (gelatinase A) inhibitory activity, FITC-labeled type IV collagen degradation; type: biochemical; settings: 50% inhibition of collagen type IV degradation; activated pro MMP-2 from transfected COS-1 cells; 42° C., 4 h
T1 construct: made in house; host or cells: COS-1 cells transfected with human pro-MMP-2 cDNA (secreted into culture medium)
T1 sequence (P08253 110-660): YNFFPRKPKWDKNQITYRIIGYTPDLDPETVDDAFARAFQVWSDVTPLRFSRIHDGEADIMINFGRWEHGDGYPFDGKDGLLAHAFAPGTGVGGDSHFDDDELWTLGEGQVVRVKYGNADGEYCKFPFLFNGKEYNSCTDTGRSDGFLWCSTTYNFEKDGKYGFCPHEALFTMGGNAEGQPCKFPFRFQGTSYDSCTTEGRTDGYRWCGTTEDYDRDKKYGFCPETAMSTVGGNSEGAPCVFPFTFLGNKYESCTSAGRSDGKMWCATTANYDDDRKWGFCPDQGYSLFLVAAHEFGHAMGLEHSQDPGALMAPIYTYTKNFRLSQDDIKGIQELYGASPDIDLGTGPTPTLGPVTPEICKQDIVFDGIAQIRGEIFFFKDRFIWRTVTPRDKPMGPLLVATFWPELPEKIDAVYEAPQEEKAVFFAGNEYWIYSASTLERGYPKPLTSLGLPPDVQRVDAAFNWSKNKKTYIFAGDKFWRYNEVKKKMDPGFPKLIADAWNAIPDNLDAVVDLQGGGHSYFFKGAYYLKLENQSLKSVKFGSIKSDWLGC
Method: (§1) Experiment 2: MMP-2 (gelatinase A) and MMP-9 (gelatinase B) inhibitory activities.
(§2) Pro MMP-2 was obtained from culture medium separated from human pro-MMP-2 cDNA tranfected COS-1 cells. It was activated by 1 mM (p-aminophenyl)mercury acetic acid, and MMP-9, derived human fibrosarcome,was purchased from Yagai Co. Ltd. Inhibition of both enzyme activities were estimated by enzyme assay using type IV collagenase activity assay kit (Yagai Co. Ltd., Biswaz, C. et al., J. Cell.Biochem., 28, 39 (1984)). MMP-2 or MMP-9 (0.01 U/ml), test compound (several concentrations), and FITC-labeled type IV collagen (derived bovine placenta, 25 μg) were incubated in 100 μl of 0.05M Tris - HCl buffer (pH 7.5) containing 200 mM NaCl and 5 mM CaCl2 at 42° C. for 4 h. Inhibitory activity of compound was evaluated by same as that of MMP-1 assay. Unchanged type IV collagen was precipitated by centrifugation, and the degradation percent of substrate was calculated by comparison with a fluorescence intensity of heat denatured substrate as 100%. Inhibition of enzyme activity was expressed as an IC50 value which was the concentration of test compound necessary to produce 50% inhibition of collagen type IV degradation by enzyme.

MMP-9 (gelatinase B) = biological target: T2, MMP-9 (gelatinase B) (Homo sapiens, UniProt P14780); test: MMP-9 (gelatinase B) inhibitory activity, FITC-labeled type IV collagen degradation; type: biochemical; settings: 50% inhibition of collagen type IV degradation; MMP-9 derived from human fibrosarcoma; 42° C., 4 h
T2 construct: purchased Yagai Co. Ltd; host or cells: human fibrosarcoma
Method: as §1, §2

T2 sequence (P14780 94-707): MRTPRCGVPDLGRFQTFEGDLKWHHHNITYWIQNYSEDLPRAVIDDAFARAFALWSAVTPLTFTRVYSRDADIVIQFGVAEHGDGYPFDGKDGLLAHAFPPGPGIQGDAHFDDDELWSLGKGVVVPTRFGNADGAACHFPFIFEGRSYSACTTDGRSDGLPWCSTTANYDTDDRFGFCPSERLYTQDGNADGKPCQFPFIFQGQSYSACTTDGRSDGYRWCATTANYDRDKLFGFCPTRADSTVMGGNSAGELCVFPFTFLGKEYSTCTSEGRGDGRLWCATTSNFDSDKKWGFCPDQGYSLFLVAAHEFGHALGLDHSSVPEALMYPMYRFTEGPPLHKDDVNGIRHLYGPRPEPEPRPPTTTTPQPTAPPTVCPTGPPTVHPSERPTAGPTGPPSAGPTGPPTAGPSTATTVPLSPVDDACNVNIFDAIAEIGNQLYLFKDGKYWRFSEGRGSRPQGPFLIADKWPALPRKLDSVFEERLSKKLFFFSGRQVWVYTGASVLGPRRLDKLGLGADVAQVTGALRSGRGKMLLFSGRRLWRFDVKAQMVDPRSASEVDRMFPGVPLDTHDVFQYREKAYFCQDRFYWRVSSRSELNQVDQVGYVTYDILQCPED

## COc1ccc(C[C@H](NC(=O)[C@H](CCCOc2ccc(OC)cc2)CC(=O)NO)C(=O)NCCS(N)(=O)=O)cc1 [Compound 50, 2-[(2S)-2-[(2R)-2-(2'-Hydroxyamino-2'-oxo-ethyl)-5-[(4-methoxyphenyl)oxy]-pentanoyl]amino-3-(4-methoxy)phenylpropanoyl]amino-ethanesulfonamide]
MMP-2 (gelatinase A)
  IC50: 0.45 nM
MMP-9 (gelatinase B)
  IC50: 0.052 nM

## COc1ccc(OCCC[C@H](CC(=O)O)C(=O)N[C@@H](Cc2ccccc2)C(=O)NC(C)(C)C)cc1 [Compound 11]
MMP-2 (gelatinase A)
  IC50: 100 nM
MMP-9 (gelatinase B)
  IC50: 14 nM

## CNC(=O)[C@H](Cc1ccccc1)NC(=O)[C@H](CCOc1ccc(OC)cc1)CC(=O)O [Compound 8, N-[(2R)-2-(1'-Carboxymethyl)-4-[(4-methoxyphenyl)oxy]butyroyl]-L-phenylalanine N-Methylamide]
MMP-2 (gelatinase A)
  IC50: 160 nM
MMP-9 (gelatinase B)
  IC50: 35 nM

## CNC(=O)[C@H](Cc1ccccc1)NC(=O)[C@@H](CC(=O)NO)CC(C)(C)COC [Compound 58, N-[(2R)-2-(2'-Hydroxyamino-2'-oxo-ethyl)-4,4-dimethyl-5-methoxy-pentanoyl]-L-phenylalanine N-Methylamide]
MMP-2 (gelatinase A)
  IC50: > 10000 nM
MMP-9 (gelatinase B)
  IC50: 2200 nM

## CNC(=O)[C@H](Cc1ccccc1)NC(=O)[C@H](CCCCOc1ccc(OC)cc1)CC(=O)O [Compound 14]
MMP-2 (gelatinase A)
  IC50: 160 nM
MMP-9 (gelatinase B)
  IC50: 120 nM

## CNC(=O)[C@H](Cc1ccccc1)NC(=O)[C@H](CCc1ccc2cccccc1-2)CC(=O)NO [Compound 32, N-[(2R)-2-(2'-Hydroxyamino-2'-oxo-ethyl)-4-(azulene-1-yl)-butyloyl]-L-phenylanine N-Methylamide]
MMP-2 (gelatinase A)
  IC50: 3200 nM
MMP-9 (gelatinase B)
  IC50: 400 nM

## CCOc1ccc(OCC[C@H](CC(=O)O)C(=O)N[C@@H](Cc2ccccc2)C(=O)NC)cc1 [Compound 9, N-[(2R)-2-(1'-Carboxymethyl)-4-[(4-ethoxyphenyl)oxy]butyroyl]-L-phenylalanine N-Methylamide]
MMP-2 (gelatinase A)
  IC50: 49 nM
MMP-9 (gelatinase B)
  IC50: 39 nM

## CNC(=O)[C@H](Cc1ccccc1)NC(=O)[C@H](CCCCc1ccc2cccccc1-2)CC(=O)O [Compound 7, N-[(2R)-2-(1'-Carboxymethyl)-6-(azulene-1-yl)hexanoyl]-L-phenylalanine N-Methylamide]
MMP-2 (gelatinase A)
  IC50: > 10000 nM
MMP-9 (gelatinase B)
  IC50: 3000 nM

## CNC(=O)[C@H](Cc1ccc(OC)cc1)NC(=O)[C@H](CCCOc1ccc(OC)cc1)CC(=O)OCc1oc(=O)oc1C [Compound 63, (2S)-2-[(2R)-2-(2'-(5-Methyl-2-oxo-1,3-dioxolen-4-yl)-methylene-oxy-2'-oxo-ethyl]-5-[(4-methoxyphenyl)oxy]-pentanoyl]amino-3-(4-methoxy)phenylpropanoylmethylamide]
MMP-2 (gelatinase A)
  IC50: 1600 nM
MMP-9 (gelatinase B)
  IC50: 140 nM

## CCOc1ccc(C[C@H](NC(=O)[C@H](CCCCOc2ccc(OC)cc2)CC(=O)O)C(=O)NC)cc1 [Compound 23, (2S)-2-[(2R)-2-(1'-Carboxymethyl)-6-[(4-methoxyphenyl)oxy]hexanoyl]amino-3-(4-ethoxy)phenylpropanoylmethylamide]
MMP-2 (gelatinase A)
  IC50: 200 nM
MMP-9 (gelatinase B)
  IC50: 51 nM

## CNC(=O)[C@@H]1Cc2ccccc2CN1C(=O)[C@H](CCCOc1ccc(OC)cc1)CC(=O)NO [Compound 57, N-[(2R)-2-(2'-Hydroxyamino-2'-oxo-ethyl)-5-[(4-methoxyphenyl)oxy]pentanoyl]-L-tetrahydroisoquinoline N-Methylamide]
MMP-2 (gelatinase A)
  IC50: 37 nM
MMP-9 (gelatinase B)
  IC50: 23 nM

## CCOc1ccc(OCC[C@H](CC(=O)NO)C(=O)N[C@@H](Cc2ccccc2)C(=O)NC)cc1 [Compound 39, N-[(2R)-2-(2'-Hydroxyamino-2'-oxo-ethyl)-4-[(4-ethoxy-phenyl)oxy]butyloyl]-L-phenylalanine N-Methylamide]
MMP-2 (gelatinase A)
  IC50: 8.8 nM
MMP-9 (gelatinase B)
  IC50: 1.4 nM

## CCOc1ccc(OCCC[C@H](CC(=O)NO)C(=O)N[C@@H](Cc2ccccc2)C(=O)NC)cc1 [Compound 43, N-[(2R)-2-(2'-Hydroxyamino-2'-oxo-ethyl)-5-[(4-ethoxy-phenyl)oxy]pentanoyl]-L-phenylalanine N-Methylamide]
MMP-2 (gelatinase A)
  IC50: 0.97 nM
MMP-9 (gelatinase B)
  IC50: 0.14 nM

## COc1ccc(OCCC[C@H](CC(=O)O)C(=O)N[C@H](C(=O)NCCS(N)(=O)=O)C(C)(C)C)cc1 [Compound 26]
MMP-2 (gelatinase A)
  IC50: 48 nM
MMP-9 (gelatinase B)
  IC50: 6.5 nM

## COc1ccc(OCCC[C@H](CC(=O)NO)C(=O)N[C@@H](Cc2ccccc2)C(=O)NCCS(N)(=O)=O)cc1 [Compound 42, 2-[N-[(2R)-2-(2'-Hydroxyamino-2'-oxo-ethyl)-5-[(4-methoxyphenyl)oxy]pentanoyl]-L-phenylalanyl]amino-ethanesulfonamide]
MMP-2 (gelatinase A)
  IC50: 0.36 nM
MMP-9 (gelatinase B)
  IC50: 0.051 nM

## CNC(=O)[C@H](Cc1ccc(OC)cc1)NC(=O)[C@H](CCCOc1ccc(OC)cc1)CC(=O)O [Compound 18]
MMP-2 (gelatinase A)
  IC50: 250 nM
MMP-9 (gelatinase B)
  IC50: 5.4 nM

## CNC(=O)[C@H](Cc1ccccc1)NC(=O)[C@H](CCCOc1ccc(OC)cc1)CC(=O)OCc1oc(=O)oc1C [Compound 61]
MMP-2 (gelatinase A)
  IC50: 1000 nM
MMP-9 (gelatinase B)
  IC50: 110 nM

## CCOc1ccc(C[C@H](NC(=O)[C@H](CCCOc2ccc(OC)cc2)CC(=O)NO)C(=O)NC)cc1 [Compound 52, (2S)-2-[(2R)-2-(2'-Hydroxyamino-2'-oxo-ethyl)-5-[(4-methoxyphenyl)oxy]-pentanoyl]amino-3-(4-ethoxy)phenylpropanoylmethylamide]
MMP-2 (gelatinase A)
  IC50: 1 nM
MMP-9 (gelatinase B)
  IC50: 0.12 nM

## CCOc1ccc(OCCC[C@H](CC(=O)OCc2oc(=O)oc2C)C(=O)N[C@@H](Cc2ccccc2)C(=O)NC)cc1 [Compound 62]
MMP-2 (gelatinase A)
  IC50: 500 nM
MMP-9 (gelatinase B)
  IC50: 120 nM

## CNC(=O)[C@H](Cc1ccccc1)NC(=O)[C@H](CCCCc1ccc2cccccc1-2)CC(=O)NO [Compound 37, N-[(2R)-2-(2'-Hydroxyamino-2'-oxo-ethyl)-6-(azulene-1-yl)-hexanoyl]-L-phenylalanine N-Methylamide]
MMP-2 (gelatinase A)
  IC50: 2700 nM
MMP-9 (gelatinase B)
  IC50: 2900 nM

## CCOc1ccc(OCCC[C@H](CC(=O)O)C(=O)N[C@@H](Cc2ccccc2)C(=O)NC)cc1 [Compound 13, N-[(2R)-2-(1'-Carboxymethyl)-5-[(4-ethoxyphenyl)oxy]pentanoyl]-L-phenylalanine N-Methylamide]
MMP-2 (gelatinase A)
  IC50: 18 nM
MMP-9 (gelatinase B)
  IC50: 13 nM

## CNC(=O)[C@H](Cc1ccc(OC)cc1)NC(=O)[C@H](CCCCOc1ccc(OC)cc1)CC(=O)NO [Compound 51, (2S)-2-[(2R)-2-(2'-Hydroxyamino-2'-oxo-ethyl)-6-[(4-methoxyphenyl)oxy]-hexanoyl]amino-3-(4-methoxy)phenylpropanoylmethylamide]
MMP-2 (gelatinase A)
  IC50: 2.5 nM
MMP-9 (gelatinase B)
  IC50: 0.28 nM

## COc1ccc(OCCC[C@H](CC(=O)O)C(=O)N[C@H](C(=O)NC(C)(C)C)C(C)(C)C)cc1 [Compound 25, N-[(2R)-2-(1'-Carboxymethyl)-5-[(4-methoxyphenyl)oxy]pentanoyl]-L-tert-leucine N-tert-Butylamide]
MMP-2 (gelatinase A)
  IC50: 200 nM
MMP-9 (gelatinase B)
  IC50: 28 nM

## COc1ccc(OCCC[C@H](CC(=O)NO)C(=O)N[C@@H](Cc2ccccc2)C(=O)NC(C)(C)C)cc1 [Compound 41, N-[(2R)-2-(2'-Hydroxyamino-2'-oxo-ethyl)-5-[(4-methoxyphenyl)oxy]pentanoyl]-L-phenylalanine N-tert-Butylamide]
MMP-2 (gelatinase A)
  IC50: 3.1 nM
MMP-9 (gelatinase B)
  IC50: 0.13 nM

## CNC(=O)[C@H](Cc1ccccc1)NC(=O)[C@H](CCCOc1ccc(OC)cc1)CC(=O)NO [Compound 40, N-[(2R)-2-(2'-Hydroxyamino-2'-oxo-ethyl)-5-[(4-methoxyphenyl)oxy]pentanoyl]-L-phenylalanine N-Methylamide]
MMP-2 (gelatinase A)
  IC50: 1 nM
MMP-9 (gelatinase B)
  IC50: 0.18 nM

## COc1ccc(OCCC[C@H](CC(=O)NO)C(=O)N[C@H](C(=O)NCCS(N)(=O)=O)C(C)(C)C)cc1 [Compound 56, 2-[N-[(2R)-2-(2'-Hydroxyamino-2'-oxo-ethyl)-5-[(4-methoxyphenyl)oxy]pentanoyl]-L-tert-leucyl]amino-ethanesulfonamide]
MMP-2 (gelatinase A)
  IC50: 2.3 nM
MMP-9 (gelatinase B)
  IC50: 0.26 nM

## CNC(=O)[C@H](Cc1ccc(OC)cc1)NC(=O)[C@H](CCc1ccc2cccccc1-2)CC(=O)O [Compound 3, (2S)-2-[(2R)-2-(1'-Carboxymethyl)-4-(azulene-1-yl)butyroyl)amino-3-(4-methoxy)phenylpropanoylmethylamide]
MMP-2 (gelatinase A)
  IC50: 240 nM
MMP-9 (gelatinase B)
  IC50: 280 nM
